{"source": "paper PMC12457078", "about": "“Inhibition of soluble epoxide hydrolase in endotoxin induced pig lung injury” (Frontiers in Pharmacology, 2025)", "test_system": "endotoxin-induced lung injury", "test": "porcine model of LPS-induced acute lung injury: haemodynamics, ventilation/mechanics, blood gases, P/F, chemistry, temperature, survival", "type": "in vivo, pig", "set-up": "AF baseline / AF end / Ven. sat end: unit not given here; PaO2 3 h / PaO2 6 h: unit: kPa", "method": "The animals were bred for purpose at the Forslunda Agricultural School in Umeå, Sweden. The pigs were pairwise kept in 8 m^2 pens before start of experiments and were fed twice daily with a commercially available pig diet without antimicrobials, and with free access to water. Photoperiods were 12:12 h light:dark. Room temperature in their stall was 20 °C ± 1 °C.\nAfter overnight fasting, but with free access to water and hay, animals were pre-medicated with ketamine (Ketaminol vet® 100 mg/mL; Intervet International B.V, Boxmeer, Netherlands), xylazine (Rompun® vet 20 mg/mL; Bayer Animal Health, Copenhagen, Denmark) and atropine (Atropin Mylan 0.5 mg/mL; Mylan AB, Stockholm, Sweden) by intramuscular injection before an auricular vein was cannulated. Anesthesia was induced with ketamine and midazolam (Midazolam Hameln 5 mg/mL, Hameln Pharmaceuticals, Hameln, Germany) and maintained with ketamine, midazolam, xylazine and fentanyl (Fentanyl 0.05 mg/mL, B. Braun Medical AB, Danderyd, Sweden). The animals were orotracheally intubated and ventilated with tidal volume 8–9 mL/kg, PEEP 8 cmH2O, and a respiratory rate set to achieve an end-tidal carbon dioxide of 5–5.5 kPa.\nOne animal served as a pharmacokinetic pilot, with arterial and venous catheters placed in a cut-down in the neck. The remaining 21 animals were used for the randomized study (Figure 1). After intubation and start of mechanical ventilation, a second auricular vein cannula was placed and infusion of either AEPU or placebo according to randomization was started. After 2 h of infusion of AEPU or placebo, an infusion of LPS was started. A bolus of 0.1 mg/kg was administered during 30 min after which the infusion rate was adjusted to 0.01 mg/kg/h. During the time between start of AEPU or placebo and LPS infusion, neck dissection was performed, exposing the v jugularis externa and carotid artery. A pulmonary artery introducer and an arterial cannula were placed in vein and artery respectively, and a pulmonary artery catheter introduced through the introducer and the tip placed in the correct position in the pulmonary artery placement guided by continuous invasive pressure monitoring or, when difficult, assisted by fluoroscopy. All surgical procedures were performed under sterile conditions.\nAEPU was synthesized according to Kim et al. ([Kim et al., 2007]), delivered in 60 mg vials and dissolved in 30 mL pure ethanol as a co-solvent, of which either 20 mL was added to 980 mL of sodium chloride 9 mg/mL or 8 mL–392 mL sodium chloride, creating a solution of 0.04 mg/mL AEPU and 2% ethanol. The placebo infusion was prepared by adding either 20 mL of pure ethanol to 980 mL of sodium chloride 9 mg/mL or 8 mL of pure ethanol to 392 mL sodium chloride, creating a 2% ethanol solution. Each animal received an infusion of either 0.1 mg/kg/h AEPU or the corresponding volume of placebo solution.\nA total of 200 mg of prefabricated lipopolysaccharides (LPS, Escherichia coli serotype 0,111:B4, Sigma-Aldrich (Product no L4130), St. Louis, MO, United States of America) was dissolved in 40 mL of sterile water, carefully mixed and filtered, creating a solution of 5 mg/mL. This preparation was stored frozen (−20 °C) in 1 mL partitions. For each animal, 2 mL of the thawed solution was mixed and diluted in 18 mL of sodium chloride, finally creating a 0.5 mg/mL LPS solution for infusion.\nAll animals were monitored with pulse oximetry, heart rate, ECG, systemic arterial blood pressure (ABP), pulmonary arterial pressure (PAP), central venous pressure (CVP) temperature, tidal volumes, respiratory rate and end tidal carbon dioxide. At baseline, and at 3 h, 6 h and at the end of the experiment, pulmonary capillary wedge pressure (PCWP) was measured together with arterial and venous blood gas analyses, as well as cardiac output calculations. […]", "key": {"[1]": {"details": "3 h, individual animals, listed as sEH-i 950"}, "[2]": {"details": "6 h, individual animals, listed as sEH-i 950"}, "[3]": {"details": "Lungmekanik, 3 h, individual animals, listed as sEH-i 950"}, "[4]": {"details": "Lungmekanik, 6 h, individual animals, listed as sEH-i 950"}, "[5]": {"details": "Lungmekanik, baseline, individual animals, listed as sEH-i 950"}, "[6]": {"details": "Lungmekanik, end, individual animals, listed as sEH-i 950"}, "[7]": {"details": "baseline, individual animals, listed as sEH-i 950"}, "[8]": {"details": "end, individual animals, listed as sEH-i 950"}, "[9]": {"details": "individual animals, 3 h, listed as sEH-i 950"}}, "note": "Where “and” joins values, the source holds several entries; their conditions need not be identical. Equal values may be shown once. Entries after “also recorded” stand apart in the source; their conditions may differ."}
{"smiles": "CCOCCOCCOCCCCCNC(=O)NC12CC3CC(CC(C3)C1)C2", "note": "[Compound 950]", "values": [{"measurement": "AF 3 h", "setting": "[1]", "value": "41 and 50 and 42 and 48 and 30 and 45 and 39 and 44 and 40"}, {"measurement": "FiO2 3 h", "setting": "[1]", "value": "0.4 and 0.5"}, {"measurement": "PaO2 3 h", "setting": "[1]", "value": "22.1 and 20.1 and 17 and 22.7 and 19.3 and 16.7 and 9 and 8.1 and 7.3 and 14.7"}, {"measurement": "AF 6 h", "setting": "[2]", "value": "40 and 54 and 50 and 48 and 30 and 45 and 39 and 44"}, {"measurement": "FiO2 6 h", "setting": "[2]", "value": "0.4 and 0.5 and 0.8 and 0.7 and 1"}, {"measurement": "PaO2 6 h", "setting": "[2]", "value": "19.6 and 12.3 and 11.8 and 18.6 and 18.5 and 14.7 and 8.7 and 9.4 and 6.8 and 7.9"}, {"measurement": "lung injury development in LPS treated pigs", "setting": "AEPU 0.1 mg/kg/h infusion vs placebo", "value": "did not attenuate"}, {"measurement": "Premature death", "setting": "AEPU group, did not survive entire protocol", "value": 40, "unit": "%"}, {"measurement": "Mortalitet: Aktivt avslut", "setting": "Ja = actively terminated, Nej = died, individual animals, listed as sEH-i 950", "value": "Nej and Ja and Nej*"}, {"measurement": "PIP 3 h", "setting": "[3]", "value": "31 cmH2O and 28 cmH2O and 32 cmH2O and 24 cmH2O and 26 cmH2O and 34 cmH2O and 39 cmH2O and 44 cmH2O and 36 cmH2O"}, {"measurement": "Pmedel 3 h", "setting": "[3]", "value": "14 cmH2O and 15 cmH2O and 12 cmH2O and 13 cmH2O and 16 cmH2O and 17 cmH2O"}, {"measurement": "Pplat 3 h", "setting": "[3]", "value": "26 cmH2O and 23 cmH2O and 22 cmH2O and 27 cmH2O and 28 cmH2O and 25 cmH2O and 34 cmH2O and 33 cmH2O"}, {"measurement": "PIP 6 h", "setting": "[4]", "value": "32 cmH2O and 33 cmH2O and 28 cmH2O and 30 cmH2O and 22 cmH2O"}, {"measurement": "Pmedel 6 h", "setting": "[4]", "value": "13 cmH2O and 15 cmH2O and 14 cmH2O and 12 cmH2O"}, {"measurement": "Pplat 6 h", "setting": "[4]", "value": "27 cmH2O and 26 cmH2O and 23 cmH2O and 21 cmH2O and 18 cmH2O"}, {"measurement": "PIP baseline", "setting": "[5]", "value": "25 cmH2O and 23 cmH2O and 19 cmH2O and 24 cmH2O and 26 cmH2O and 27 cmH2O"}, {"measurement": "Pmedel baseline", "setting": "[5]", "value": "12 cmH2O and 15 cmH2O and 13 cmH2O and 11 cmH2O and 14 cmH2O"}, {"measurement": "Pplat baseline", "setting": "[5]", "value": "19 cmH2O and 16 cmH2O and 18 cmH2O and 22 cmH2O and 17 cmH2O"}, {"measurement": "PIP end", "setting": "[6]", "value": "30 cmH2O and 37 cmH2O and 29 cmH2O and 28 cmH2O and 46 cmH2O"}, {"measurement": "Pmedel end", "setting": "[6]", "value": "13 cmH2O and 16 cmH2O and 14 cmH2O"}, {"measurement": "Pplat end", "setting": "[6]", "value": "24 cmH2O and 29 cmH2O and 22 cmH2O and 28 cmH2O"}, {"measurement": "PaO2/FiO2 3h", "setting": "P/F-kvot, 3 h, individual animals, listed as sEH-i 950", "value": "55.25 and 40.2 and 42.5 and 56.75 and 48.25 and 41.75 and 22.5 and 16.2 and 18.25 and 36.75"}, {"measurement": "PaO2/FiO2 6h", "setting": "P/F-kvot, 6 h, individual animals, listed as sEH-i 950", "value": "49 and 24.6 and 23.6 and 46.5 and 46.25 and 36.75 and 10.87 and 13.43 and 6.8 and 19.75"}, {"measurement": "PaO2/FiO2 baseline", "setting": "P/F-kvot, baseline, individual animals, listed as sEH-i 950", "value": "73.75 and 71.5 and 73 and 67 and 72.75 and 65.25 and 70.5 and 72.25 and 61.75 and 74.75"}, {"measurement": "PaO2/FiO2 end", "setting": "P/F-kvot, end, individual animals, listed as sEH-i 950", "value": "49.75 and 16.75 and 24 and 48.75 and 30.5 and 4.4 and 8.7"}, {"measurement": "FiO2 baseline", "setting": "baseline, individual animals", "value": 0.4}, {"measurement": "AF baseline", "setting": "[7]", "value": "40 and 42 and 26 and 34 and 46"}, {"measurement": "PaO2 baseline", "setting": "[7]", "value": "29.5 and 28.6 and 29.2 and 26.8 and 29.1 and 26.1 and 28.2 and 28.9 and 24.7 and 29.9"}, {"measurement": "Mortalitet: Dödsorsak", "setting": "cause of death, individual animals, listed as sEH-i 950", "value": "Cirkulationssvikt; also recorded: Adrenalinet tog slut…; also recorded: *Tubbyte/Hypoxi; also recorded: Lungsvikt/Hypoxi"}, {"measurement": "P/F 3h - baseline", "setting": "change of P/F from baseline to 3 h, individual animals, listed as sEH-i 950", "value": "-18.5 and -31.3 and -30.5 and -10.25 and -24.5 and -23.5 and -48 and -56.05 and -43.5 and -38"}, {"measurement": "P/F 6h - baseline", "setting": "change of P/F from baseline to 6 h, individual animals, listed as sEH-i 950", "value": "-24.75 and -46.9 and -49.4 and -20.5 and -26.5 and -28.5 and -59.625 and -58.8214 and -54.95 and -55"}, {"measurement": "P/F 9h- baseline", "setting": "change of P/F from baseline to 9 h (end), individual animals, listed as sEH-i 950", "value": "-24 and -54.75 and -49 and -18.25 and -34.75 and -66.1 and -63.55"}, {"measurement": "Mortalitet, kommentarer", "setting": "comments on clinical course, individual animals, listed as sEH-i 950", "value": "Instabil. Död i högersvikt 16.20 trots adrenalin; also recorded: Tidig start adrenalininf pga lågt CO; also recorded: Mycket svårt septisk. Extrema doser adrenalin; also recorded: Mycket svårt septisk. Högersvikt; also recorded: Relativt stabil. Nästan frisk i slutet; also recorded: Försök till tubbyte -> hypoxi + död; also recorded: Standardupplägg. Ter sig septisk redan vid induktion; also recorded: Svårt septisk redan från första början. Instabil. Död i cirkulationssvikt något i förtid. Misslyckad deff; also recorded: Septisk. Kräver adrenalininf. Uttalad lungskada. Lågt CO på slutet. Högdos adrenalin. Svår hjärtsvikt; also recorded: Svår sepsis med ffa svår lungsvikt. Mors i hypoxi efter 6 h. Sista prov (6h) några minuter före död. PSVT upprepat med självterminerande vid LPS-bolus"}, {"measurement": "Fluid administration total", "setting": "end of experiment, AEPU group", "value": "5785 (5080–7210) mL"}, {"measurement": "Urine output", "setting": "end of experiment, AEPU group", "value": "700 (320–1200) mL"}, {"measurement": "AF end", "setting": "[8]", "value": "40 and 54 and 50 and 48 and 45 and 39 and 44"}, {"measurement": "FiO2 end", "setting": "[8]", "value": "0.4 and 0.8 and 0.5 and 1"}, {"measurement": "PaO2 end", "setting": "[8]", "value": "19.9 and 13.4 and 12 and 19.5 and 12.2 and 4.4 and 8.7"}, {"measurement": "CO 3 h", "setting": "[9]", "value": "3.2 L/min and 5.3 L/min and 3.6 L/min and 3.3 L/min and 5.7 L/min and 3.1 L/min and 4.2 L/min"}, {"measurement": "CVP 3 h", "setting": "[9]", "value": "15 mmHg and 21 mmHg and 14 mmHg and 10 mmHg and 17 mmHg and 18 mmHg and 13 mmHg and 16 mmHg"}, {"measurement": "HR 3 h", "setting": "[9]", "value": "141 and 137 and 175 and 135 and 140 and 119 and 162 and 144 and 164 and 114"}, {"measurement": "MAP 3 h", "setting": "[9]", "value": "110 mmHg and 107 mmHg and 58 mmHg and 72 mmHg and 94 mmHg and 79 mmHg and 88 mmHg and 106 mmHg and 52 mmHg and 99 mmHg"}, {"measurement": "MPAP 3 h", "setting": "[9]", "value": "65 mmHg and 39 mmHg and 41 mmHg and 43 mmHg and 46 mmHg and 47 mmHg and 54 mmHg and 51 mmHg and 55 mmHg"}, {"measurement": "PCWP 3 h", "setting": "[9]", "value": "21 mmHg and 15 mmHg and 17 mmHg and 19 mmHg"}, {"measurement": "PaCO2 3 h", "setting": "[9]", "value": "4.9 kPa and 5.9 kPa and 6.6 kPa and 5.6 kPa and 6.5 kPa and 5.2 kPa and 5.7 kPa and 6.9 kPa and 7.7 kPa and 5.8 kPa"}]}
